According to US12098151B2 (priority 2018, dated 2024):
Like-named read-outs stand apart in the source and are kept apart here.

Experiments:
[1] = tested on: Junin virus; test: microbe, parasite or virus in culture; format: cell-based
[2] = tested on: LCMV; test: microbe, parasite or virus in culture; format: cell-based, lymphocytic choriomeningitis virus (LCMV)
[3] = Mammarenavirus juninense, HEK-293T, 96 h
[4] = Mammarenavirus choriomeningitidis, KB, 96 h

Structure (SMILES)	EC50 [1, 3] [µM]	EC50 [2, 4] [µM]	also measured
CCN1C(=O)c2c(O)c(=O)c(C(=O)O)cn2C(C(c2ccccc2)c2ccccc2)N1CC (stereo not shown) [Compound I-007]	0.138	0.065	
CC(C)N1CN(Cc2ccccc2CCc2ccccc2)n2cc(C(=O)O)c(=O)c(O)c2C1=O [III-005]	0.243	0.09	
CN1C[C@H](C2c3ccccc3CSc3ccccc32)n2cc(C(=O)O)c(=O)c(O)c2C1=O (stereo partly shown) [Compound I-029]	0.042	< 0.031	
O=C(O)c1cn2c(c(O)c1=O)C(=O)N(CC1CCOCC1)CN2C1c2ccccc2CCc2ccccc21 [III-007]	0.016	0.014	
COCCN1CN(C2c3ccccc3CCc3ccccc32)n2cc(C(=O)O)c(=O)c(O)c2C1=O [Compound I-079]	0.005	0.0053	
COCCCN1C[C@H](C(c2ccccc2)c2ccccc2)n2cc(C(=O)O)c(=O)c(O)c2C1=O [Compound I-044]	0.354	0.04	
O=C(O)c1cn2c(c(O)c1=O)C(=O)N(CC1CC1)CN2C(c1ccccc1)c1ccccc1 [III-027]	0.013	0.019	
CC(C)N1CN(C2c3ccccc3CSc3ccccc32)n2cc(C(=O)O)c(=O)c(O)c2C1=O (stereo not shown) [Compound I-019]			EC50 [1]: 0.0069 µM; EC50 [2]: 0.0022 µM
O=C(O)c1cn2c(c(O)c1=O)C(=O)N(C[C@@H]1CCCO1)CN2C1c2ccccc2CCc2ccccc21 [II-002]	0.012	0.0071	
CCC(C)N1C[C@H](C(c2ccccc2)c2ccccc2)n2cc(C(=O)O)c(=O)c(O)c2C1=O (stereo partly shown) [Compound I-033]	0.068	0.015	
O=C(O)c1cn2c(c(O)c1=O)C(=O)N(C(C1CC1)C1CC1)CN2C1c2ccccc2CCc2ccccc21 [III-017]	0.0049	0.0044	
O=C(O)c1cn2c(c(O)c1=O)C(=O)N(C(C1CC1)C1CC1)CN2C1c2ccccc2CSc2ccccc21 (stereo not shown) [III-029]			EC50 [1]: 0.182 µM; EC50 [2]: 0.063 µM
O=C(O)c1cn2c(c(O)c1=O)C(=O)N(Cc1ccc(F)cc1Cl)CN2C1c2ccccc2CCc2ccccc21 [III-009]	0.019	0.037	
O=C(O)c1cn2c(c(O)c1=O)C(=O)N(Cc1ccc(F)cc1F)CN2C1c2ccccc2CCc2ccccc21 [Compound I-081]	0.0061	0.024	
O=C(O)c1cn2c(c(O)c1=O)C(=O)N(CC1CC1)CN2C1c2ccccc2CSc2ccccc21 (stereo not shown) [III-013]			EC50 [1]: 0.0037 µM; EC50 [2]: 0.0033 µM
O=C(O)c1cn2c(c(O)c1=O)C(=O)N(CCc1ccc(F)cc1F)CN2C1c2ccccc2CCc2ccccc21 [III-011]	0.097	0.055	
O=C(O)c1cn2c(c(O)c1=O)C(=O)N(CC1CC1)CN2C1c2ccccc2CSc2ccccc21 (stereo not shown) [III-014]			EC50 [1]: 0.276 µM; EC50 [2]: 0.13 µM
CC(C)N1C[C@H](C(c2ccccc2)c2ccccc2)n2cc(C(=O)O)c(=O)c(O)c2C1=O [Compound I-037]	0.082	0.024	
CCN(CC)CCN1CN(C2c3ccccc3CCc3ccccc32)n2cc(C(=O)O)c(=O)c(O)c2C1=O [III-022]		> 1	
Cc1ccc2c(c1)C(N1CN(C(C)C)C(=O)c3c(O)c(=O)c(C(=O)O)cn31)c1cc(C)ccc1CC2 [III-024]	> 0.2	0.083	
O=C(O)CN1C[C@H](C(c2ccccc2)c2ccccc2)n2cc(C(=O)O)c(=O)c(O)c2C1=O [Compound I-063]		0.28	
CN1C(=O)c2c(O)c(=O)c(C(=O)O)cn2C(C(c2ccccc2)c2ccccc2)N1C (stereo not shown) [Compound I-009]	0.405	0.143	

Structure (SMILES)	EC50 [1, 3] [µM]	EC50 [2, 4] [µM]	also measured
CCOC(=O)c1cn2c(c(O)c1=O)C(=O)N(CCOC)C[C@@H]2C(c1ccccc1)c1ccccc1 [Compound I-066]		0.25	
CCN1CN(C(c2ccccc2)c2ccccc2)n2c(C)c(C(=O)O)c(=O)c(O)c2C1=O [Compound I-072]			EC50 ([1]; read-out: EC50): 0.014 µM
CC(C)N1CC(Cc2ccccc2)n2cc(C(=O)O)c(=O)c(O)c2C1=O (stereo not shown) [Compound I-055]	1.87		
CC(C)N1CN(C2c3ccccc3C=Cc3ccccc32)n2cc(C(=O)O)c(=O)c(O)c2C1=O [III-002]	0.0044	0.011	
CCOCCN1C[C@H](C(c2ccccc2)c2ccccc2)n2cc(C(=O)O)c(=O)c(O)c2C1=O [Compound I-038]	0.148	0.028	
Cc1ccc2c(c1)CCc1cc(C)ccc1C2N1CN(C(C)C)C(=O)c2c(O)c(=O)c(C(=O)O)cn21 [Compound I-076]	0.034	0.013	
CC(C)N1CN(C2c3ccccc3CCc3ccccc32)n2cc(C(N)=O)c(=O)c(O)c2C1=O [III-003]	0.302	0.676	
O=C(O)c1cn2c(c(O)c1=O)C(=O)N(Cc1cccc(Cl)c1F)C[C@@H]2C(c1ccccc1)c1ccccc1 [Compound I-023]	0.011	0.0022	
O=C(O)c1cn2c(c(O)c1=O)C(=O)N(CC1CCCCC1)CN2C1c2ccccc2CCc2ccccc21 [III-012]	0.021	0.038	
O=C(O)c1cn2c(c(O)c1=O)C(=O)N(C(C1CC1)C1CC1)CN2C1c2ccccc2CSc2ccccc21 (stereo not shown) [III-028]			EC50 [1]: 0.0024 µM; EC50 [2]: 0.0021 µM
O=C(O)c1cn2c(c(O)c1=O)C(=O)N(CC1CC1)CN2C(c1ccc(-c2ccccc2)cc1)c1ccc(-c2ccccc2)cc1 [III-018]	0.173	0.399	
O=C(O)c1cn2c(c(O)c1=O)C(=O)NC[C@@H]2C(c1ccccc1)c1ccccc1 [Compound I-053]	0.987	0.275	
C[C@@H](N1CN([C@H]2c3ccccc3CSc3ccccc32)n2cc(C(=O)O)c(=O)c(O)c2C1=O)C(F)(F)F [Compound I-004]	0.015	0.012	
CCCC(C)N1C[C@H](C(c2ccccc2)c2ccccc2)n2cc(C(=O)O)c(=O)c(O)c2C1=O (stereo partly shown) [Compound I-031]	0.045	0.02	
CCN1CN(Cc2ccc(-c3ccccc3)cc2)n2cc(C(=O)O)c(=O)c(O)c2C1=O [Compound I-010]	0.579	0.328	
O=C(O)c1cn2c(c(O)c1=O)C(=O)N1CCCO[C@H]1[C@@H]2Cc1ccccc1 [Compound I-062]		2.41	
Cc1cccc2c1CCc1c(C)cccc1C2N1CN(C(C)C)C(=O)c2c(O)c(=O)c(C(=O)O)cn21 [Compound I-075]	0.0017	0.0031	
CC(C)N1CN(C2c3ccccc3CSc3ccccc32)n2cc(C(=O)O)c(=O)c(O)c2C1=O (stereo not shown) [III-020]			EC50 [1]: > 0.2 µM; EC50 [2]: 0.121 µM
Cc1cccc2c1CCc1c(C)cccc1C2N1CN(C(C2CC2)C2CC2)C(=O)c2c(O)c(=O)c(C(=O)O)cn21 [III-032]	0.017	0.028	
O=C(O)c1cn2c(c(O)c1=O)C(=O)N1CCCO[C@H]1[C@@H]2C(c1ccccc1)c1ccccc1 [Compound I-047]	0.414	0.372	
CC(C)N1CN(Cc2ccccc2-c2ccccc2)n2cc(C(=O)O)c(=O)c(O)c2C1=O [Compound I-080]	0.437	0.499	
CON(C)C(=O)c1cn2c(c(O)c1=O)C(=O)N(C(C)C)CN2C1c2ccccc2CCc2ccccc21 [III-004]	0.021	0.027	

Structure (SMILES)	EC50 [1, 3] [µM]	EC50 [2, 4] [µM]	also measured
COCCN1C(=O)c2c(O)c(=O)c(C(=O)O)cn2C[C@H]1C(c1ccccc1)c1ccccc1 [Compound I-036]	0.074	0.069	
O=C(O)c1cn2c(c(O)c1=O)C(=O)N(CC1CCCC1)CN2C1c2ccccc2CCc2ccccc21 [III-015]	0.025	0.017	
CCN1CN(C(c2ccccc2)c2ccccc2)n2cc(C(=O)O)c(=O)c(O)c2C1=O [Compound I-005]	0.028	0.053	
CN1CN(C(c2ccccc2)c2ccccc2)n2cc(C(=O)O)c(=O)c(O)c2C1=O [Compound I-008]	0.239	0.205	
CC(C)=CCN1C[C@H](C(c2ccccc2)c2ccccc2)n2cc(C(=O)O)c(=O)c(O)c2C1=O [Compound I-024]	0.012	0.014	
O=C(O)c1cn2c(c(O)c1=O)C(=O)N(Cc1ccccc1)CC2Cc1ccccc1 (stereo not shown) [Compound I-051]	0.739	0.722	
CC(C)N1CN(C2c3cccc(F)c3CCc3c(F)cccc32)n2cc(C(=O)O)c(=O)c(O)c2C1=O [Compound I-077]	0.0018	0.0033	
CCCN1C[C@H](C(c2ccccc2)c2ccccc2)n2cc(C(=O)O)c(=O)c(O)c2C1=O [Compound I-032]	0.064	0.018	
COc1ccc(CN2CN(C3c4ccccc4CCc4ccccc43)n3cc(C(=O)O)c(=O)c(O)c3C2=O)cc1 [III-008]	0.014	0.019	
O=C(O)c1cn2c(c(O)c1=O)C(=O)N(CC1CC1)CN2C1c2cccc(F)c2CCc2c(F)cccc21 [III-034]	0.0045	0.0035	
CC(C)N1CN(Cc2ccccc2)n2cc(C(=O)O)c(=O)c(O)c2C1=O [III-026]		> 1	
CC(C)N1CN(C2c3ccc(F)cc3CCc3cc(F)ccc32)n2cc(C(=O)O)c(=O)c(O)c2C1=O [III-023]	0.017	0.014	
O=C(O)c1cn2c(c(O)c1=O)C(=O)N1CCOC[C@H]1N2[C@@H]1c2ccccc2SCc2c1ccc(F)c2F [Compound I-001]			EC50 ([1]; read-out: EC50): 0.111 µM; EC50 ([2]; read-out: EC50): 0.115 µM
O=C(O)c1cn2c(c(O)c1=O)C(=O)N1CCCO[C@@H]1[C@@H]2C(c1ccccc1)c1ccccc1 [Compound I-050]	0.64		
O=C(O)c1cn2c(c(O)c1=O)C(=O)N[C@H](C(c1ccccc1)c1ccccc1)C2 [Compound I-059]		0.772	
CCN1CN(C2c3ccccc3CCc3ccccc32)n2nc(C(=O)O)c(=O)c(O)c2C1=O [III-019]	0.072	0.039	
COCCN1C[C@H](C(c2ccccc2)c2ccccc2)n2cc(NC(=O)OC)c(=O)c(O)c2C1=O [Compound I-012]	3		
CCN1CN(Cc2ccc(-c3ccccc3OC)s2)n2c(C)c(C(=O)O)c(=O)c(O)c2C1=O [Compound I-073]			EC50 ([1]; read-out: EC50): 0.065 µM
COCCN1C[C@H](CC2CCCCC2)n2cc(C(=O)O)c(=O)c(O)c2C1=O [Compound I-056]	2.03		
O=C(O)c1cn2c(c(O)c1=O)C(=O)N(Cc1ccc(F)cc1)CN2Cc1ccc(-c2ccccc2)cc1 [Compound I-052]	0.751		
